Test results: patent US12139475B2, “2-oxindole compounds” (CHEMOCENTRYX, INC., priority 2016, dated 2024)

Molecular target: T1, CCR(9) (Homo sapiens, UniProt P51686)
T1 construct: MOLT-4 cells were collected by centrifugation at 400×g at room temperature, then suspended at 50 million/ml in human serum; host or cells: MOLT-4
T1 sequence (P51686 1-369): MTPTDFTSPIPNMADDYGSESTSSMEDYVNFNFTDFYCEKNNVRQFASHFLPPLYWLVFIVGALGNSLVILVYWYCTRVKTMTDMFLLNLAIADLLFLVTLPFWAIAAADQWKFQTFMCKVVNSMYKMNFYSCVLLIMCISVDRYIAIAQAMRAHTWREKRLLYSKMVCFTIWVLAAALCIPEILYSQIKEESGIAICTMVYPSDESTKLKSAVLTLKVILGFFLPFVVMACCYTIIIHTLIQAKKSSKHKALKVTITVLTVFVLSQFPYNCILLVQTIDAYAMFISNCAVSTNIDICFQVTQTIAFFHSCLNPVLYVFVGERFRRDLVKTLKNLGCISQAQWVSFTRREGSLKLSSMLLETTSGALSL
Experiment: Serum chemotaxis assay (MOLT-4 cells, TECK-induced migration, ChemoTX)
Type: cell-based
Conditions: MOLT-4 cells in human serum, migration to recombinant human TECK, 90 minutes at 37° C.
Description: MOLT-4 cells were obtained from the American Type Culture Collection (Manassas, VA) and cultured in RPMI tissue culture medium supplemented with 10% fetal calf serum (FCS) in a humidified 5% CO2 incubator at 37° C. Recombinant human chemokine proteins TECK was obtained from R&D Systems (Minneapolis, MN). ChemoTX™ chemotaxis microchambers were purchased from Neuro Probe (Gaithersburg, MD). CyQUANT™ cell proliferation kits were purchased from Molecular Probes (Eugene, Oregon). Calcium indicator dye Fluo-4 AM was purchased from Molecular Devices (Mountain View, CA).
A serum chemotaxis assay was used to determine the efficacy of potential receptor antagonists at blocking the migration mediated through chemokine receptors, such as CCR(9). This assay was performed using the ChemoTX® microchamber system with a 5-μm pore-sized polycarbonate membrane. MOLT-4 cells were collected by centrifugation at 400×g at room temperature, then suspended at 50 million/ml in human serum, containing 50 mM HEPES (final pH of 7.2). The compound being tested or an equivalent volume of its solvent (DMSO) was then added to the cell/serum mixture at a final DMSO concentration of 0.125% (v/v), and this mixture was then incubated together at 37° C. for one hour. Separately, recombinant human TECK was diluted with chemotaxis buffer (HBSS+0.1% BSA), generally spanning a range from 0.1 nM to 500 nM, after which 29 μl of diluted chemokine was placed in the lower wells of the ChemoTX® plate. The 5-μm (pore size) polycarbonate membrane was placed onto the plate, and 20 μL of the cell/compound mixture was transferred onto each well of the membrane. The plates were incubated at 37° C. for 90 minutes, after which the polycarbonate membranes were removed and 5 μl of the DNA-intercalating agent CyQUANT (Invitrogen, Carlsbad, CA) was added to the lower wells. The amount of fluorescence, corresponding to the number of migrated cells, was measured using a Spectrafluor Plus plate reader (TECAN, San Jose, CA).
The A2 values were calculated from the following equation, comparing the efficacy of the test compound with that of the DMSO-only control at equi-active chemokine levels: Log(A2)=log[drug(M)]−log[(A′/A)−1] where A reflects the potency of the agonist in the absence of antagonist and A′ reflects the potency of the agonist in the presence of antagonist at a given concentration of drug ([drug(M)]). In Vivo Efficacy Models for Human IBD

Structure (SMILES) | Chemotaxis A2
CC1(C)CCc2cc(C3(C)C(=O)N(c4cccc(C(=O)O)c4)c4cc(Cl)ccc43)ccc2O1 (stereo not shown) | ++ (500 nM > A2 ≥ 100 nM)
CC(C)(C)c1ccc(C2(C)C(=O)N(c3cccc(C(=O)O)c3)c3ccc(Cl)cc32)cc1F (stereo not shown) | +++ (100 nM > A2)
Cc1ccc2c(c1)C(C)(c1ccc(C(C)(C)C)cc1)C(=O)N2c1cccc(C(=O)O)c1 (stereo not shown) | ++ (500 nM > A2 ≥ 100 nM)
Cc1ccc2c(c1)C(C)(c1ccc(C(C)(C)C)cc1)C(=O)N2c1ccc(C(=O)O)cc1 (stereo not shown) | ++ (500 nM > A2 ≥ 100 nM)
Cc1cc(C(C)(C)C)ccc1C1(C)C(=O)N(c2ccc(C(=O)O)cc2)c2ccc(Cl)cc21 (stereo not shown) | ++ (500 nM > A2 ≥ 100 nM)
CC(C)(C)c1ccc([C@]2(C)C(=O)N(c3ccc(F)c(C(=O)O)c3)c3ccc(Cl)cc32)cc1 | +++ (100 nM > A2)
Cc1ccc(N2C(=O)[C@@](C)(c3ccc(C(C)(C)C)cc3)c3cc(Cl)ccc32)cc1C(=O)O | +++ (100 nM > A2)
Cc1ccc(N2C(=O)[C@@](C)(c3ccc4c(c3)CCC(C)(C)O4)c3cc(Cl)ccc32)cc1C(=O)O | +++ (100 nM > A2)
CC1(C)CCc2cc([C@]3(C)C(=O)N(c4ccc(C(=O)O)cc4)c4ccc(Cl)cc43)ccc2O1 | +++ (100 nM > A2)
CC1(C)CCc2cc([C@]3(C)C(=O)N(c4ccc(F)c(C(=O)O)c4)c4ccc(Cl)cc43)ccc2O1 | +++ (100 nM > A2)
CC1(C)CCc2cc([C@]3(C)C(=O)N(c4ccc(Cl)c(C(=O)O)c4)c4ccc(Cl)cc43)ccc2O1 | +++ (100 nM > A2)
CC1(C)CCc2cc([C@]3(C)C(=O)N(c4ccc(C(=O)O)c(Cl)c4)c4ccc(Cl)cc43)ccc2O1 | +++ (100 nM > A2)
CC1(C)CCc2cc([C@]3(C)C(=O)N(c4cccc(CC(=O)O)c4)c4ccc(Cl)cc43)ccc2O1 | +++ (100 nM > A2)
Cc1ccc2c(c1)[C@](C)(c1ccc3c(c1)CCC(C)(C)O3)C(=O)N2c1cccc(C(=O)O)c1 | +++ (100 nM > A2)
Cc1ccc2c(c1)[C@](C)(c1ccc3c(c1)CCC(C)(C)O3)C(=O)N2c1ccc(C(=O)O)cc1 | +++ (100 nM > A2)
CC1(C)CCc2cc([C@]3(C)C(=O)N(c4ccc(OC(F)(F)F)c(C(=O)O)c4)c4ccc(Cl)cc43)ccc2O1 | +++ (100 nM > A2)
CC1(C)CCc2cc([C@]3(C)C(=O)N(c4ccc(C(=O)O)c(F)c4)c4ccc(Cl)cc43)ccc2O1 | +++ (100 nM > A2)
Cc1cc(N2C(=O)[C@@](C)(c3ccc4c(c3)CCC(C)(C)O4)c3cc(Cl)ccc32)ccc1C(=O)O | +++ (100 nM > A2)
CC1(C)CCc2cc([C@]3(C)C(=O)N(c4ccc(CCC(=O)O)cc4)c4ccc(Cl)cc43)ccc2O1 | +++ (100 nM > A2)
CCc1ccc(N2C(=O)[C@@](C)(c3ccc4c(c3)CCC(C)(C)O4)c3cc(Cl)ccc32)cc1C(=O)O | +++ (100 nM > A2)
COc1cc(N2C(=O)[C@@](C)(c3ccc4c(c3)CCC(C)(C)O4)c3cc(Cl)ccc32)ccc1C(=O)O | +++ (100 nM > A2)
CC1(C)CCc2cc([C@]3(C)C(=O)N(c4cccc(CCC(=O)O)c4)c4ccc(Cl)cc43)ccc2O1 | +++ (100 nM > A2)
CC1(C)CCc2cc([C@]3(C)C(=O)N(Cc4cccc(C(=O)O)c4)c4ccc(Cl)cc43)ccc2O1 | +++ (100 nM > A2)
CC(C(=O)O)c1cccc(N2C(=O)[C@@](C)(c3ccc4c(c3)CCC(C)(C)O4)c3cc(Cl)ccc32)c1 (stereo partly shown) | +++ (100 nM > A2)
CC1(C)CCc2cc([C@]3(C)C(=O)N(Cc4ccccc4C(=O)O)c4ccc(Cl)cc43)ccc2O1 | +++ (100 nM > A2)
CC1(C)CCc2cc([C@]3(C)C(=O)N(c4cccc(C(C)(C)C(=O)O)c4)c4ccc(Cl)cc43)ccc2O1 | +++ (100 nM > A2)
COc1ccc(CN2C(=O)[C@@](C)(c3ccc4c(c3)CCC(C)(C)O4)c3cc(Cl)ccc32)cc1C(=O)O | +++ (100 nM > A2)
CC(c1cccc(C(=O)O)c1)N1C(=O)[C@@](C)(c2ccc3c(c2)CCC(C)(C)O3)c2cc(Cl)ccc21 (stereo partly shown) | +++ (100 nM > A2)

Structure (SMILES) | Chemotaxis A2
CC1(C)CCc2cc([C@]3(C)C(=O)N(Cc4ccc(F)c(C(=O)O)c4)c4ccc(Cl)cc43)ccc2O1 | +++ (100 nM > A2)
Cc1ccc(CN2C(=O)[C@@](C)(c3ccc4c(c3)CCC(C)(C)O4)c3cc(Cl)ccc32)cc1C(=O)O | +++ (100 nM > A2)
Cc1ccc(CN2C(=O)[C@@](C)(c3ccc4c(c3)CCC(C)(C)O4)c3cc(Cl)ccc32)c(C(=O)O)c1 | +++ (100 nM > A2)
CC1(C)CCc2cc([C@]3(C)C(=O)N(c4cccc(OCC(=O)O)c4)c4ccc(Cl)cc43)ccc2O1 | +++ (100 nM > A2)
CC1(C)CCc2cc([C@]3(C)C(=O)N(Cc4ccc(F)cc4C(=O)O)c4ccc(Cl)cc43)ccc2O1 | +++ (100 nM > A2)
COc1ccc(CN2C(=O)[C@@](C)(c3ccc4c(c3)CCC(C)(C)O4)c3cc(Cl)ccc32)c(C(=O)O)c1 | +++ (100 nM > A2)
CC1(C)CCc2cc([C@]3(C)C(=O)N(c4ccc(OCC(=O)O)cc4)c4ccc(Cl)cc43)ccc2O1 | +++ (100 nM > A2)
CC1(C)CCc2cc([C@]3(C)C(=O)N(c4ccc(CCCC(=O)O)cc4)c4ccc(Cl)cc43)ccc2O1 | +++ (100 nM > A2)
CCOc1ccc(N2C(=O)[C@@](C)(c3ccc4c(c3)CCC(C)(C)O4)c3cc(Cl)ccc32)cc1C(=O)O | +++ (100 nM > A2)
CC(C)Oc1ccc(N2C(=O)[C@@](C)(c3ccc4c(c3)CCC(C)(C)O4)c3cc(Cl)ccc32)cc1C(=O)O | +++ (100 nM > A2)
CC1(C)CCc2cc([C@]3(C)C(=O)N(Cc4ccc(Cl)cc4C(=O)O)c4ccc(Cl)cc43)ccc2O1 | +++ (100 nM > A2)
Cc1cc(CN2C(=O)[C@@](C)(c3ccc4c(c3)CCC(C)(C)O4)c3cc(Cl)ccc32)ccc1C(=O)O | +++ (100 nM > A2)
Cc1ccc(C(=O)O)c(CN2C(=O)[C@@](C)(c3ccc4c(c3)CCC(C)(C)O4)c3cc(Cl)ccc32)c1 | +++ (100 nM > A2)
Cc1cccc(CN2C(=O)[C@@](C)(c3ccc4c(c3)CCC(C)(C)O4)c3cc(Cl)ccc32)c1C(=O)O | +++ (100 nM > A2)
COc1cc(C(=O)O)cc(N2C(=O)[C@@](C)(c3ccc4c(c3)CCC(C)(C)O4)c3cc(Cl)ccc32)c1 | +++ (100 nM > A2)
Cc1cc(C(=O)O)cc(N2C(=O)[C@@](C)(c3ccc4c(c3)CCC(C)(C)O4)c3cc(Cl)ccc32)c1 | +++ (100 nM > A2)
CC1(C)CCc2cc([C@]3(C)C(=O)N(c4ccc(C(F)(F)F)c(C(=O)O)c4)c4ccc(Cl)cc43)ccc2O1 | +++ (100 nM > A2)
Cc1c(CN2C(=O)[C@@](C)(c3ccc4c(c3)CCC(C)(C)O4)c3cc(Cl)ccc32)cccc1C(=O)O | +++ (100 nM > A2)
Cc1cccc(C(=O)O)c1CN1C(=O)[C@@](C)(c2ccc3c(c2)CCC(C)(C)O3)c2cc(Cl)ccc21 | +++ (100 nM > A2)
CC1(C)CCc2cc([C@]3(C)C(=O)N(c4ccccc4CC(=O)O)c4ccc(Cl)cc43)ccc2O1 | +++ (100 nM > A2)
CC(C)COc1ccc(N2C(=O)[C@@](C)(c3ccc4c(c3)CCC(C)(C)O4)c3cc(Cl)ccc32)cc1C(=O)O | +++ (100 nM > A2)
CC1(C)CCc2cc([C@]3(C)C(=O)N(Cc4cc(Cl)ccc4C(=O)O)c4ccc(Cl)cc43)ccc2O1 | +++ (100 nM > A2)
CC1(C)CCc2cc([C@]3(C)C(=O)N(c4cc(Cl)cc(C(=O)O)c4)c4ccc(Cl)cc43)ccc2O1 | +++ (100 nM > A2)
CC1(C)CCc2cc([C@]3(C)C(=O)N(Cc4cccc(Cl)c4C(=O)O)c4ccc(Cl)cc43)ccc2O1 | +++ (100 nM > A2)
COc1cccc(C(=O)O)c1CN1C(=O)[C@@](C)(c2ccc3c(c2)CCC(C)(C)O3)c2cc(Cl)ccc21 | ++ (500 nM > A2 ≥ 100 nM)
COc1cccc(CN2C(=O)[C@@](C)(c3ccc4c(c3)CCC(C)(C)O4)c3cc(Cl)ccc32)c1C(=O)O | +++ (100 nM > A2)
CC1(C)CCc2cc([C@]3(C)C(=O)N(c4cc(F)cc(C(=O)O)c4)c4ccc(Cl)cc43)ccc2O1 | +++ (100 nM > A2)
